The target in data set [1] is T1, Solute carrier family 22 member 6 (Rattus norvegicus, UniProt O35956).
T1 sequence (O35956 whole entry): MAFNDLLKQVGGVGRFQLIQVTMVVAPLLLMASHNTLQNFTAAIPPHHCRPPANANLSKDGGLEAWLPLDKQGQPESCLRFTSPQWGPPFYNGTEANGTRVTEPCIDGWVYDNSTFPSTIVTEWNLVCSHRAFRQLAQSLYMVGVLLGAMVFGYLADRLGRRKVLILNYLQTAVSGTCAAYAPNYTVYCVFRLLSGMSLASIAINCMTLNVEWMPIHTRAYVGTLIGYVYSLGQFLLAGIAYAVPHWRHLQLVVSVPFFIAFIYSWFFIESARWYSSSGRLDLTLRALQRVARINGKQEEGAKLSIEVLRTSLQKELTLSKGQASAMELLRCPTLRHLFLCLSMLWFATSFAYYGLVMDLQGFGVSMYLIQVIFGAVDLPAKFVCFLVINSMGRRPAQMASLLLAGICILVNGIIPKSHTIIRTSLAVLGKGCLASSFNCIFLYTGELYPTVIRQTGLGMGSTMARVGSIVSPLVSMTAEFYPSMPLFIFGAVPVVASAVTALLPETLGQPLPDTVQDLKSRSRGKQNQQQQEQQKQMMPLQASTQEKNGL
In words: TP_TRANSPORTER: inhibition of PAH uptake in Xenopus laevis oocytes. In kind it is functional, cell-based, Oocyte.

The target of data set [2] is T1, Solute carrier family 22 member 6. In words: TP_TRANSPORTER: uptake in Xenopus laevis oocytes. To be noted: oocyte. In kind it is functional, cell-based.

What is called IC50 is the point on the concentration scale where inhibition reaches its midpoint.

With `CN(C)CCn1nnnc1SCC1=C(C(=O)O)N2C(=O)[C@@H](NC(=O)Cc3csc(N)n3)[C@H]2SC1` [CEFOTIAM], inhibition in data set [1] was half-maximal at 718 µM (IC50). Moreover, the Activity result in data set [2] was “substrate [+]”.

Take `CC1=C(C(=O)O)N2C(=O)[C@@H](NC(=O)[C@H](N)c3ccccc3)[C@H]2SC1` [CEPHALEXIN ANHYDROUS]: in data set [2], the Activity entry is “substrate [+]”.

These data come from ChEMBL document CHEMBL2074125 (Drug Metabol Pharmacokin, 2002).
